As usually defined, the IC50 is the concentration that gives 50% inhibition.

The results in this text go back to ChEMBL document CHEMBL5518204, “Discovery and Proof of Concept of Potent Dual Polθ/PARP Inhibitors for Efficient Treatment of Homologous Recombination-Deficient Tumors” (J Med Chem, 2024).

Series [1] has as its system MDA-MB-231. As to the kind of experiment: Antiproliferative activity against human MDA-MB-231 cells incubated for 4 days by MTT assay. Type of series: functional, cell-based. As to conditions: time 4.0 day.
The nature of series [2]: Volume of distribution at steady state in Sprague-Dawley rat at 1 mg/kg, iv by LC-MS/MS analysis. It counts as ADME, organism-based. As to conditions: in vivo, read-out: Vdss.
In a further series the test system is SW48. Kind of series: Antiproliferative activity against BRCA2-deficient human SW48 cells assessed as inhibition of cell proliferation incubated for 5 days by MTT assay. As to conditions: SW48, 120 h, read-out: IC50. It counts as functional, cell-based. On the technique in general: Tetrazolium assays rely on reduction of a dye to a coloured formazan, in cell work by metabolically active cells.

Series [3] is described as follows: Toxicity in BALB/c mouse xenografted with human MDA-MB-231 cells assessed as increase in body weight at 20 to 40 mg/kg, ip administered for 21 days. It counts as organism-based. As to conditions: in vivo, 504 h, dose 20-40 mg/kg, time 21 day. On the technique in general: A xenograft is tissue or cells of one species grown in another, often human tumour cells in immunodeficient mice.

For series [4], the target named is T1, DNA polymerase theta (Homo sapiens, UniProt O75417). Kind of series: Inhibition of DNA polymerase theta mediated TMEJ repair activity in HEK293 cells incubated for 24 hrs by Nano-glo luciferase assay. It counts as cell-based.
T1 sequence (O75417 whole entry): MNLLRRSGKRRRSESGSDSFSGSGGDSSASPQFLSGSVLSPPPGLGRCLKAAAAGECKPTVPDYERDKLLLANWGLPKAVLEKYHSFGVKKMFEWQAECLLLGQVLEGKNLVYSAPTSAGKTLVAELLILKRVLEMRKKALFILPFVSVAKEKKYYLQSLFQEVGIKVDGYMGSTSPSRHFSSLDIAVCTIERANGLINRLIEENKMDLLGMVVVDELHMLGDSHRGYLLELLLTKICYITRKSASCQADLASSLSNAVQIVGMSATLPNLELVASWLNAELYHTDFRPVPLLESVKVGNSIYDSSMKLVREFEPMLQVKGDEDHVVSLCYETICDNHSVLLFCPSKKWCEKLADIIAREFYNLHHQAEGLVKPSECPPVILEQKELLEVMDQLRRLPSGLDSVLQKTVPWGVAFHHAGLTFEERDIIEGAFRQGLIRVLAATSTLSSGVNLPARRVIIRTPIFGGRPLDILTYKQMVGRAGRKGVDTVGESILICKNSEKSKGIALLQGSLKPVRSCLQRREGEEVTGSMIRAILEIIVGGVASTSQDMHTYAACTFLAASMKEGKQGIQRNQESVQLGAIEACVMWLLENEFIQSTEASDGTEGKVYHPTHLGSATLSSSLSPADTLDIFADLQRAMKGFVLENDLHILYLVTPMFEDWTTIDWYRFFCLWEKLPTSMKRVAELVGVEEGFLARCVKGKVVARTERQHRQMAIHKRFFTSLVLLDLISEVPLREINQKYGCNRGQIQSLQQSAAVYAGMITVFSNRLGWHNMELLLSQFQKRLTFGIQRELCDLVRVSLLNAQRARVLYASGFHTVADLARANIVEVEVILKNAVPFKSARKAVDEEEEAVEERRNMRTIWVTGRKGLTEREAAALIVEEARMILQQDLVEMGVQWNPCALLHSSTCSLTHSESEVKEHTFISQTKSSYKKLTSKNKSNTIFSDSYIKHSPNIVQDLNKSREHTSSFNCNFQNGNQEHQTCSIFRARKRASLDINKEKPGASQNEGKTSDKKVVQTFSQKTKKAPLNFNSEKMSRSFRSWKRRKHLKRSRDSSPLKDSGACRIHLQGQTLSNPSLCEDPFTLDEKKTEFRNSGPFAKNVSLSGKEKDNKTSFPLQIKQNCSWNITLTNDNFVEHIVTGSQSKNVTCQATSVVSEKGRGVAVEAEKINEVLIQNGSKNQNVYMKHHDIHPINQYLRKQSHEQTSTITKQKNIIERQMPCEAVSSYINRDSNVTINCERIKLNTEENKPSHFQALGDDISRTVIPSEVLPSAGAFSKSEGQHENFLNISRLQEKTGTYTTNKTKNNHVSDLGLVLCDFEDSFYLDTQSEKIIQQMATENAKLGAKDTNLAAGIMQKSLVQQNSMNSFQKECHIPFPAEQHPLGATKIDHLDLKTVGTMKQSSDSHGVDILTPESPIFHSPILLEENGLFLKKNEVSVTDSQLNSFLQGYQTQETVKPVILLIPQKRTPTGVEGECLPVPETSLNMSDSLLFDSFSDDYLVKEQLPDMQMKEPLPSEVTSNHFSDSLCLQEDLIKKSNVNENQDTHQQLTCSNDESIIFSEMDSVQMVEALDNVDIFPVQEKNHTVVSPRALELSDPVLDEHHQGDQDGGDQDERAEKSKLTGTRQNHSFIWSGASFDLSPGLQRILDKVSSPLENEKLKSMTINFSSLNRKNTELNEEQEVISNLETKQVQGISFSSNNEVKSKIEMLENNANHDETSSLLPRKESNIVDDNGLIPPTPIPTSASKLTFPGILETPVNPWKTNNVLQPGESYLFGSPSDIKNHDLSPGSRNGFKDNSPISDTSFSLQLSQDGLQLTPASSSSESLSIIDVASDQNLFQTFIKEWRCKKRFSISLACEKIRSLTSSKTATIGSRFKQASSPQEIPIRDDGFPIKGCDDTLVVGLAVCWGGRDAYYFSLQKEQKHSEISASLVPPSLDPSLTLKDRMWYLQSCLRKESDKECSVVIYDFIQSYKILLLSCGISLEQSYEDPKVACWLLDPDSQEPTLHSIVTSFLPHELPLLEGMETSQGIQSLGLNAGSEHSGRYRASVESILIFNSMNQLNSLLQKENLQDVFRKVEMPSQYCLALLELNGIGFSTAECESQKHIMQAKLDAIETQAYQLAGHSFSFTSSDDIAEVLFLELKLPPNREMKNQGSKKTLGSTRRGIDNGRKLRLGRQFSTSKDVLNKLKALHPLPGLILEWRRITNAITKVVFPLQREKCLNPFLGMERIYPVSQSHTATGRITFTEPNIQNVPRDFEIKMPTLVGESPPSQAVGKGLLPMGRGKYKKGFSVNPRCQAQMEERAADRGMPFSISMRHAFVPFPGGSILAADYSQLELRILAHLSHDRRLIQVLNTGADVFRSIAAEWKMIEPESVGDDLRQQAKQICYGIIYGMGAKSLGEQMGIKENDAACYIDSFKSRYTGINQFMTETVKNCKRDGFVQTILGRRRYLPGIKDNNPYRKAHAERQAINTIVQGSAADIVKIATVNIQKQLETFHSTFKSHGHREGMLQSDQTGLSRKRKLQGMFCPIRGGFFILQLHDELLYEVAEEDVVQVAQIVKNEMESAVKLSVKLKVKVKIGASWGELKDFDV
Series [5] relates to MDA-MB-231. As to the kind of experiment: Induction of DNA damage in human MDA-MB-231 cells assessed as increase in gammaH2AX foci at 2 uM incubated for 3 days by DAPI staining based confocal laser scanning microscopic analysis. It counts as functional, cell-based. Particulars: time 3.0 day.
A short description of series [6]: Metabolic stability in rat liver microsome assessed as intrinsic clearance. Type of series: ADME. As to conditions: liver microsomes, read-out: CLH. (In general: Microsomes from liver hold many membrane-bound enzymes, among them those of drug oxidation.)
In series [7] the target is T1, DNA polymerase theta. As to the kind of experiment: Inhibition of DNA polymerase theta (unknown origin) ATPase activity incubated for 60 mins in presence of ATP by ADP-glo kinase assay.
Series [8] deals with T2, Protein mono-ADP-ribosyltransferase PARP10 (Homo sapiens, UniProt Q53GL7).
T2 sequence (Q53GL7 whole entry): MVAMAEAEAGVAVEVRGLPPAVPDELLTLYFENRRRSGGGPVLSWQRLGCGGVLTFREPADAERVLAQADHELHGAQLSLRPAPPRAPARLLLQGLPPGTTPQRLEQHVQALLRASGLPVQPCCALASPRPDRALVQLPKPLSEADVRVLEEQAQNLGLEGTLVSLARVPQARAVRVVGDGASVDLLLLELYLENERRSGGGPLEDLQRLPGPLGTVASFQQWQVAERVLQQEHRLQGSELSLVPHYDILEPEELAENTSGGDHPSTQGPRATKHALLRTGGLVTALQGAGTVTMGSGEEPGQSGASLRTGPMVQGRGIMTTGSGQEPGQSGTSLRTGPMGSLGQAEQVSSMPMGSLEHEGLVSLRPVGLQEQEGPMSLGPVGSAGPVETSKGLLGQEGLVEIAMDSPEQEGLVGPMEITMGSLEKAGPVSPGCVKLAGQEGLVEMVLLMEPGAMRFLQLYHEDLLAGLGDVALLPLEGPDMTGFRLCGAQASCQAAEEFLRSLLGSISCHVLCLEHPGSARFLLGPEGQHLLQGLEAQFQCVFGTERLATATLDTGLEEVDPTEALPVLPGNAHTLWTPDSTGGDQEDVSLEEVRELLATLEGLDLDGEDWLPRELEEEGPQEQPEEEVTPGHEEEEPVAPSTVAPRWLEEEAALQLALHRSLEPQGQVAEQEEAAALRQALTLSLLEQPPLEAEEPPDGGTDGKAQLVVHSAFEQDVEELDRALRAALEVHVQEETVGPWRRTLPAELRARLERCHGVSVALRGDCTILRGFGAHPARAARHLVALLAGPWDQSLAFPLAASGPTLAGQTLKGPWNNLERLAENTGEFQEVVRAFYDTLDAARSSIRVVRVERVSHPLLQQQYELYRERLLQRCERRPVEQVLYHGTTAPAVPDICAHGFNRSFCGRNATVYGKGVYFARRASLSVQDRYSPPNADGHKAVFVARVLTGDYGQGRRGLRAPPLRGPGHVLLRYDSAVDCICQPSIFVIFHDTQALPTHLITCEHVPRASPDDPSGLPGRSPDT
Kind of series: Inhibition of PARP10 (unknown origin).

The target of series [9] is T3, Protein mono-ADP-ribosyltransferase PARP3 (Homo sapiens, UniProt Q9Y6F1).
T3 sequence (Q9Y6F1 whole entry): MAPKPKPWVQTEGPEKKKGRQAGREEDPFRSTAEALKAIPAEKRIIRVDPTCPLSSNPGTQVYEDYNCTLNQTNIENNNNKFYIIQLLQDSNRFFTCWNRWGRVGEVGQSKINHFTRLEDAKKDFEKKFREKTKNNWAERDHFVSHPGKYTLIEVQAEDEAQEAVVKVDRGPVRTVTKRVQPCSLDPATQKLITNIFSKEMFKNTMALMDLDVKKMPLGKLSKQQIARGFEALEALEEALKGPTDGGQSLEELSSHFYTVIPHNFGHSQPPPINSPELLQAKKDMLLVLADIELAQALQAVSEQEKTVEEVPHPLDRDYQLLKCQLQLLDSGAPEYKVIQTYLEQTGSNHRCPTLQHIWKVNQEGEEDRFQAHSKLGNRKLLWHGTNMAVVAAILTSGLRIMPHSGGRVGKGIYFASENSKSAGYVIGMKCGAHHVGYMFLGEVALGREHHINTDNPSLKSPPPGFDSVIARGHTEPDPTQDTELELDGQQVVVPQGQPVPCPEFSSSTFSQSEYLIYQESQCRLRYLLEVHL
As to the kind of experiment: Inhibition of PARP3 (unknown origin).

In series [10] the test system is MDA-MB-231. As to the kind of experiment: Induction of apoptosis in human MDA-MB-231 cells at 2 uM incubated for 3 days by Annexin V-APC/7-AAD based flow cytometry analysis. It counts as functional. As to conditions: time 3 day.
The next series concerns MDA-MB-436. As to the kind of experiment: Antiproliferative activity against BRCA1-deficient human MDA-MB-436 cells assessed as inhibition of cell proliferation incubated for 5 days by MTT assay. Type of series: functional, cell-based. As to conditions: MDA-MB-436, 120 h.
Another series relates to HCT-116. As to the kind of experiment: Antiproliferative activity against BRCA2-deficient human HCT-116 cells assessed as inhibition of cell proliferation incubated for 5 days by MTT assay. It counts as functional, cell-based. As to conditions: HCT-116, 120 h.

Structures are written as SMILES. Activity calls are given as the source filed them. The rule behind the calls is not given here.

Take `COc1ccc(Cl)cc1-c1cc(C)ncc1C(=O)Nc1nnc(OCC2CCN(C(=O)c3cc(Cc4n[nH]c(=O)c5ccccc45)ccc3F)CC2)s1`: the result with MDA-MB-231 [1] and in the series with MDA-MB-231 [5] was Active. Further, the Vd in series [2] turned out to be 1.12 L/kg. Moreover, the IC50 was found to be 2900 nM in the series on SW48; 88 nM at DNA polymerase theta [4]; 45.6 nM on DNA polymerase theta [7]; 1100 nM in [8]; 51.2 nM in series [9]; 2700 nM with MDA-MB-436. In addition, in the series on HCT-116, the IC50 was 8900 nM. For the same molecule, the values for the Activity result (in series [3]; in the series with MDA-MB-231 [10]) were “Non-Toxic” and 26.7%, respectively. In addition, the CLint scaled in [6] is 802 mL/min/kg.
